# Laboratory results taken from PubChem BioAssay (NCI).
#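 A five-concentration, 48-hour dose response in 96-well plates underlies each endpoint, interpolated linearly between surrounding concentrations. Here, GI50 denotes the concentration required for 50% inhibition of growth. TGI: total growth inhibition.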
# Assays:
# Assay in all cases: NCI anticancer screen, dose series, 48 h
# 786-0 renal = system: 786-0 renal
# A498 renal = system: A498 renal
# A549 NSCLC = system: A549 NSCLC
# ACHN renal = system: ACHN renal
# BT-549 breast = system: BT-549 breast
# CAKI-1 renal = system: CAKI-1 renal
# CCRF-CEM leukemia = system: CCRF-CEM leukemia
# COLO 205 colon = system: COLO 205 colon
# DU-145 prostate = system: DU-145 prostate
# EKVX NSCLC = system: EKVX NSCLC
# HCC-2998 colon = system: HCC-2998 colon
# HCT-116 colon = system: HCT-116 colon
# HCT-15 colon = system: HCT-15 colon
# HL-60(TB) leukemia = system: HL-60(TB) leukemia
# HOP-62 NSCLC = system: HOP-62 NSCLC
# HOP-92 NSCLC = system: HOP-92 NSCLC
# HS 578T breast = system: HS 578T breast
# HT29 colon = system: HT29 colon
# IGROV1 ovarian = system: IGROV1 ovarian
# K-562 leukemia = system: K-562 leukemia
# KM12 colon = system: KM12 colon
# LOX IMVI melanoma = system: LOX IMVI melanoma
# M14 melanoma = system: M14 melanoma
# MALME-3M melanoma = system: MALME-3M melanoma
# MCF7 breast = system: MCF7 breast
# MDA-MB-231 breast = system: MDA-MB-231 breast
# MDA-MB-435 = system: MDA-MB-435
# NCI-H226 lung = system: NCI-H226 lung
# NCI-H23 lung = system: NCI-H23 lung
# NCI-H460 lung = system: NCI-H460 lung
# NCI-H522 lung = system: NCI-H522 lung
# NCI/ADR-RES ovarian = system: NCI/ADR-RES ovarian
# OVCAR-3 ovarian = system: OVCAR-3 ovarian
# OVCAR-4 ovarian = system: OVCAR-4 ovarian
# OVCAR-5 ovarian = system: OVCAR-5 ovarian
# OVCAR-8 ovarian = system: OVCAR-8 ovarian
# PC-3 prostate = system: PC-3 prostate
# RPMI-8226 leukemia = system: RPMI-8226 leukemia
# RXF 393 renal = system: RXF 393 renal
# SF-268 CNS = system: SF-268 CNS
# SF-295 CNS = system: SF-295 CNS
# SF-539 CNS = system: SF-539 CNS
# SK-MEL-2 melanoma = system: SK-MEL-2 melanoma
# SK-MEL-28 melanoma = system: SK-MEL-28 melanoma
# SK-MEL-5 melanoma = system: SK-MEL-5 melanoma
# SK-OV-3 ovarian = system: SK-OV-3 ovarian
# SN12C renal = system: SN12C renal
# SNB-19 CNS = system: SNB-19 CNS
# SNB-75 CNS = system: SNB-75 CNS
# SR leukemia = system: SR leukemia
# SW-620 colon = system: SW-620 colon
# T-47D breast = system: T-47D breast
# TK-10 renal = system: TK-10 renal
# U251 CNS = system: U251 CNS
# UACC-257 melanoma = system: UACC-257 melanoma
# UACC-62 melanoma = system: UACC-62 melanoma
# UO-31 renal = system: UO-31 renal
smiles,measurement,setting,value
CCNCCNc1cc(-c2ccc(C#N)cc2)c(C#N)c2nc3ccccc3n12,GI50,786-0 renal,2200 nM
same,TGI,786-0 renal,7.46 µM
same,GI50,A498 renal,3.73 µM
same,TGI,A498 renal,11.9 µM
same,GI50,A549 NSCLC,3.06 µM
same,TGI,A549 NSCLC,6.39 µM
same,GI50,ACHN renal,2340 nM
same,TGI,ACHN renal,5.73 µM
same,GI50,BT-549 breast,1900 nM
same,TGI,BT-549 breast,4.91 µM
same,GI50,CAKI-1 renal,3.5 µM
same,TGI,CAKI-1 renal,13.5 µM
same,GI50,CCRF-CEM leukemia,2490 nM
same,TGI,CCRF-CEM leukemia,9.9 µM
same,GI50,COLO 205 colon,1880 nM
same,TGI,COLO 205 colon,4.16 µM
same,GI50,DU-145 prostate,4.13 µM
same,TGI,DU-145 prostate,15.3 µM
same,GI50,EKVX NSCLC,4.75 µM
same,TGI,EKVX NSCLC,19.3 µM
same,GI50,HCC-2998 colon,6.04 µM
same,TGI,HCC-2998 colon,20.8 µM
same,GI50,HCT-116 colon,1500 nM
same,TGI,HCT-116 colon,2940 nM
same,GI50,HCT-15 colon,2810 nM
same,TGI,HCT-15 colon,11 µM
same,GI50,HL-60(TB) leukemia,1870 nM
same,TGI,HL-60(TB) leukemia,4.35 µM
same,GI50,HOP-62 NSCLC,3.13 µM
same,TGI,HOP-62 NSCLC,14.9 µM
same,GI50,HOP-92 NSCLC,2210 nM
same,TGI,HOP-92 NSCLC,4.5 µM
same,GI50,HS 578T breast,3.49 µM
same,TGI,HS 578T breast,13.9 µM
same,GI50,HT29 colon,3.1 µM
same,TGI,HT29 colon,9.82 µM
same,GI50,IGROV1 ovarian,4.53 µM
same,TGI,IGROV1 ovarian,18 µM
same,GI50,K-562 leukemia,3.13 µM
same,TGI,K-562 leukemia,18.2 µM
same,GI50,KM12 colon,3.36 µM
same,TGI,KM12 colon,12.2 µM
same,GI50,LOX IMVI melanoma,1720 nM
same,TGI,LOX IMVI melanoma,3.29 µM
same,GI50,M14 melanoma,1880 nM
same,TGI,M14 melanoma,3.79 µM
same,GI50,MALME-3M melanoma,1800 nM
same,TGI,MALME-3M melanoma,3.99 µM
same,GI50,MCF7 breast,3.59 µM
same,TGI,MCF7 breast,16.2 µM
same,GI50,MDA-MB-231 breast,2350 nM
same,TGI,MDA-MB-231 breast,5.61 µM
same,GI50,MDA-MB-435,2290 nM
same,TGI,MDA-MB-435,6.28 µM
same,GI50,NCI-H226 lung,2590 nM
same,TGI,NCI-H226 lung,11.9 µM
same,GI50,NCI-H23 lung,5.3 µM
same,TGI,NCI-H23 lung,21.3 µM
same,GI50,NCI-H460 lung,2470 nM
same,TGI,NCI-H460 lung,5.66 µM
same,GI50,NCI-H522 lung,2440 nM
same,TGI,NCI-H522 lung,7.06 µM
same,GI50,NCI/ADR-RES ovarian,5.74 µM
same,TGI,NCI/ADR-RES ovarian,36 µM
same,GI50,OVCAR-3 ovarian,1660 nM
same,TGI,OVCAR-3 ovarian,3.09 µM
same,GI50,OVCAR-4 ovarian,2540 nM
same,TGI,OVCAR-4 ovarian,8.74 µM
same,GI50,OVCAR-5 ovarian,4.66 µM
same,TGI,OVCAR-5 ovarian,18.4 µM
same,GI50,OVCAR-8 ovarian,5.15 µM
same,TGI,OVCAR-8 ovarian,16.9 µM
same,GI50,PC-3 prostate,7.41 µM
same,TGI,PC-3 prostate,20.7 µM
same,GI50,RPMI-8226 leukemia,4.78 µM
same,TGI,RPMI-8226 leukemia,19.5 µM
same,GI50,RXF 393 renal,1740 nM
same,TGI,RXF 393 renal,4.1 µM
same,GI50,SF-268 CNS,3.42 µM
same,TGI,SF-268 CNS,14.1 µM
same,GI50,SF-295 CNS,1790 nM
same,TGI,SF-295 CNS,3.6 µM
same,GI50,SF-539 CNS,1770 nM
same,TGI,SF-539 CNS,3.49 µM
same,GI50,SK-MEL-2 melanoma,3.2 µM
same,TGI,SK-MEL-2 melanoma,10.4 µM
same,GI50,SK-MEL-28 melanoma,1860 nM
same,TGI,SK-MEL-28 melanoma,3.72 µM
same,GI50,SK-MEL-5 melanoma,2280 nM
same,TGI,SK-MEL-5 melanoma,5.67 µM
same,GI50,SK-OV-3 ovarian,3.8 µM
same,TGI,SK-OV-3 ovarian,14.8 µM
same,GI50,SN12C renal,3.13 µM
same,TGI,SN12C renal,11.8 µM
same,GI50,SNB-19 CNS,4.69 µM
same,TGI,SNB-19 CNS,17.4 µM
same,GI50,SNB-75 CNS,1660 nM
same,TGI,SNB-75 CNS,4.24 µM
same,GI50,SR leukemia,2590 nM
same,TGI,SR leukemia,6.74 µM
same,GI50,SW-620 colon,2680 nM
same,TGI,SW-620 colon,11.1 µM
same,GI50,T-47D breast,2340 nM
same,TGI,T-47D breast,6.39 µM
same,GI50,TK-10 renal,2030 nM
same,TGI,TK-10 renal,5.74 µM
same,GI50,U251 CNS,2340 nM
same,TGI,U251 CNS,5.2 µM
same,GI50,UACC-257 melanoma,3.72 µM
same,TGI,UACC-257 melanoma,7.14 µM
same,GI50,UACC-62 melanoma,2020 nM
same,TGI,UACC-62 melanoma,4.18 µM
same,GI50,UO-31 renal,1620 nM
same,TGI,UO-31 renal,3.1 µM
